{
  "source": "the SangsterLogP compilation",
  "key": {"[1]": {"assay": "method code SF-AS, from DOI: 10.1248/cpb.32.5003, PMID: 6534549"}, "[2]": {"assay": "method code SF-AS, from DOI: 10.1163/156856796x00098", "conditions": "pH 7.4"}, "[3]": {"assay": "method code SF-RC, from DOI: 10.1016/s0969-8051(02)00326-8, PMID: 12234587", "conditions": "pH 7.4"}, "[4]": {"assay": "method code SF-AS, from DOI: 10.1002/chin.198428254"}, "[5]": {"assay": "method code SF-AS, from DOI: 10.1002/etc.5620180606"}, "[6]": {"assay": "method code SF-AS, from DOI: 10.1002/ps.2780160411"}, "[7]": {"assay": "not given", "remark": "listed apart in the source"}, "[8]": {"assay": "method code SF, from DOI: 10.1016/0168-3659(92)90078-6", "conditions": "pH 7.0"}, "[9]": {"assay": "not given", "remark": "listed apart in the source"}, "[10]": {"assay": "not given", "remark": "listed apart in the source"}, "[11]": {"assay": "method code SF-RC, from DOI: 10.1016/j.nucmedbio.2006.06.006, PMID: 16934700", "conditions": "pH 7.4"}, "[12]": {"assay": "method code SF-RC, from Godoy, N.; Valle, L.; Mena, P.; Gil, M. (1989). Synthesis, labeling and biodistribution of 99mTc-labelled bromoimino diacetic acids. Nucleotecnica, 9(17)25-32."}, "[13]": {"assay": "not given", "remark": "listed apart in the source"}, "[14]": {"assay": "not given", "remark": "listed apart in the source"}, "[15]": {"assay": "method code SF-AS, from DOI: 10.1021/jm00296a014, PMID: 5418493"}, "[16]": {"assay": "not given", "remark": "listed apart in the source"}},
  "data": [
    {"smiles": "COc1ccccc1NC(=O)Cc1ccccc1", "values": [
      {"measurement": "logP", "setting": "[1]", "value": 2.68}
    ]},
    {"smiles": "CCOP(=O)(CC(C)(C)[N+]([O-])=Cc1cc[n+]([O-])cc1)OCC", "values": [
      {"measurement": "logD", "setting": "[2]", "value": -0.74}
    ]},
    {"smiles": "Oc1ccc(-c2cc3cc(I)ccc3o2)cc1", "values": [
      {"measurement": "logD", "setting": "[3]", "value": 2.97}
    ]},
    {"smiles": "O=C(NCCN1CCN2Cc3[nH]c4ccccc4c3CC2C1)c1ccccc1", "note": "(stereo not given)", "values": [
      {"measurement": "logP", "setting": "[4]", "value": 1.52}
    ]},
    {"smiles": "Nc1c(Cl)c(Cl)c(N)c2c1C(=O)c1ccccc1C2=O", "values": [
      {"measurement": "logP", "setting": "[5]", "value": 4.56}
    ]},
    {"smiles": "CC(C)CCCCCOC(=O)COc1ccc(Cl)cc1Cl", "values": [
      {"measurement": "logP", "setting": "[6]", "value": 5.73}
    ]},
    {"smiles": "Cc1ccc(Cl)c(NS(=O)(=O)c2nc(C)n(-c3ccccc3)n2)c1Cl", "values": [
      {"measurement": "logP", "value": 4.4}
    ]},
    {"smiles": "CS(=O)(=O)NC(=O)c1cc(Oc2ccc(C(F)(F)F)cc2Cl)ccc1[N+](=O)[O-]", "values": [
      {"measurement": "logP", "setting": "[6]", "value": 2.9}
    ]},
    {"smiles": "CCCCC(CC)COP(=O)(Oc1ccccc1)Oc1ccccc1", "note": "(stereo not given)", "values": [
      {"measurement": "logP", "setting": "[7]", "value": 5}
    ]},
    {"smiles": "O=C(Cc1ccccc1)Nc1ccccc1[N+](=O)[O-]", "values": [
      {"measurement": "logP", "setting": "[1]", "value": 2.73}
    ]},
    {"smiles": "Cc1ccccc1C(=O)OCC1CCC(n2cnc3c(O)ncnc32)O1", "note": "(stereo not given)", "values": [
      {"measurement": "logD", "setting": "[8]", "value": 1.02}
    ]},
    {"smiles": "Cc1nc(S(=O)(=O)Nc2c(F)cccc2F)nn1-c1ccccc1", "values": [
      {"measurement": "logP", "value": 3.2}
    ]},
    {"smiles": "CCCC1COC(Cn2cncn2)(c2ccc(Cl)cc2Cl)O1", "note": "(stereo not given)", "values": [
      {"measurement": "logP", "setting": "[9]", "value": 3.4}
    ]},
    {"smiles": "Clc1cccc(Cl)c1C=NN=c1ccn(CCc2c(Cl)cccc2Cl)cc1", "values": [
      {"measurement": "logP", "setting": "[10]", "value": 4}
    ]},
    {"smiles": "FCCCOc1ccc(-c2cc3ccccc3s2)cc1", "values": [
      {"measurement": "logD", "setting": "[11]", "value": 2.88}
    ]},
    {"smiles": "Cc1ccc(Br)c(C)c1NC(=O)CN(CC(=O)O)CC(=O)O", "values": [
      {"measurement": "logP", "setting": "[12]", "value": 0.28}
    ]},
    {"smiles": "COc1ccc(Cc2nccc3cc(OC)c(OC)cc23)cc1OC", "values": [
      {"measurement": "logP", "setting": "[13]", "value": 2.95}
    ]},
    {"smiles": "CCCC(=O)OC[C@@H]1CC[C@H](n2cnc3c(=O)[nH]cnc32)O1", "values": [
      {"measurement": "logD", "setting": "[8]", "value": 0.11}
    ]},
    {"smiles": "Cc1nc(NCCCO)c(C#N)cc1-c1ccccc1", "values": [
      {"measurement": "logP", "setting": "[14]", "value": 2.72}
    ]},
    {"smiles": "Clc1cccc(Cl)c1C=NN=c1ccn(CCCc2ccccc2)cc1", "values": [
      {"measurement": "logP", "setting": "[10]", "value": 3.9}
    ]},
    {"smiles": "Cc1cc(C)c(NC(=O)CN(CC(=O)O)CC(=O)O)c(C)c1Br", "values": [
      {"measurement": "logP", "setting": "[12]", "value": -0.11}
    ]},
    {"smiles": "COc1ccc(-c2cc3ccccc3s2)cc1", "values": [
      {"measurement": "logD", "setting": "[11]", "value": 3.07}
    ]},
    {"smiles": "O=C(O)C1c2ccccc2Sc2ccccc21", "values": [
      {"measurement": "logP", "setting": "[15]", "value": 2.57}
    ]},
    {"smiles": "Cc1nc(NCC(C)O)c(C#N)cc1-c1ccccc1", "note": "(stereo not given)", "values": [
      {"measurement": "logP", "setting": "[14]", "value": 2.72}
    ]},
    {"smiles": "O=C(NCCN1CCN2Cc3[nH]c4ccccc4c3CC2C1)c1ccccc1[N+](=O)[O-]", "note": "(stereo not given)", "values": [
      {"measurement": "logP", "setting": "[4]", "value": 1.8}
    ]},
    {"smiles": "c1ccc2c3c([nH]c2c1)CN1CCNCC1C3", "note": "(stereo not given)", "values": [
      {"measurement": "logP", "setting": "[4]", "value": 0.36}
    ]},
    {"smiles": "Cc1cccc2c1Cc1ccccc1-2", "values": [
      {"measurement": "logP", "setting": "[16]", "value": 4.97}
    ]},
    {"smiles": "FC(F)C(F)(F)OCC1COC(Cn2cncn2)(c2ccc(Cl)cc2Cl)O1", "note": "(stereo not given)", "values": [
      {"measurement": "logP", "setting": "[9]", "value": 3.2}
    ]},
    {"smiles": "ON=C1CCN(CCCc2ccccc2)CC1", "values": [
      {"measurement": "logP", "setting": "[10]", "value": 2.8}
    ]},
    {"smiles": "OC(Cn1cncn1)(c1ccc(F)cc1)c1ccccc1F", "note": "(stereo not given)", "values": [
      {"measurement": "logP", "setting": "[9]", "value": 2.3}
    ]},
    {"smiles": "O=C(O)C1c2ccccc2Oc2ccccc21", "values": [
      {"measurement": "logP", "setting": "[15]", "value": 2.23}
    ]},
    {"smiles": "CN(C)c1ccc(-c2cc3ccc(I)cc3o2)cc1", "values": [
      {"measurement": "logD", "setting": "[3]", "value": 2.12}
    ]},
    {"smiles": "c1ccc2c(c1)Cc1cc3ccccc3cc1-2", "values": [
      {"measurement": "logP", "setting": "[16]", "value": 5.75}
    ]},
    {"smiles": "Nc1c(Oc2ccc(CN3CCCCCC3=O)cc2)cc(O)c2c1C(=O)c1ccccc1C2=O", "values": [
      {"measurement": "logP", "setting": "[5]", "value": 5.3}
    ]},
    {"smiles": "CCOP(=O)(CC(C)(C)[N+]([O-])=Cc1ccccc1)OCC", "values": [
      {"measurement": "logD", "setting": "[2]", "value": 1}
    ]},
    {"smiles": "CCN(CC)Cc1cc(Nc2ccnc3cc(Cl)ccc23)ccc1O", "values": [
      {"measurement": "logP", "setting": "[13]", "value": 4.2}
    ]},
    {"smiles": "CN(C)c1ccc(-c2cc3cc(I)ccc3o2)cc1", "values": [
      {"measurement": "logD", "setting": "[3]", "value": 2.35}
    ]},
    {"smiles": "CCCCC(=O)OC[C@@H]1CC[C@H](n2cnc3c(=O)[nH]cnc32)O1", "values": [
      {"measurement": "logD", "setting": "[8]", "value": 0.65}
    ]},
    {"smiles": "CCc1nc(S(=O)(=O)Nc2c(F)cccc2F)nn1-c1ccccc1", "values": [
      {"measurement": "logP", "value": 3.7}
    ]},
    {"smiles": "FCCCNc1ccc(-c2cc3ccccc3s2)cc1", "values": [
      {"measurement": "logD", "setting": "[11]", "value": 3.56}
    ]},
    {"smiles": "CCCCOP(=O)(OCCCC)Oc1ccccc1", "values": [
      {"measurement": "logP", "setting": "[7]", "value": 3.23}
    ]},
    {"smiles": "O=C(O)C1c2ccccc2-c2ccccc21", "values": [
      {"measurement": "logP", "setting": "[15]", "value": 2.8}
    ]},
    {"smiles": "Nc1ccccc1NC(=O)Cc1ccccc1", "values": [
      {"measurement": "logP", "setting": "[1]", "value": 1.45}
    ]},
    {"smiles": "COc1c(Br)cccc1C(=CC(=O)C(C)(C)C)n1cncn1", "values": [
      {"measurement": "logP", "setting": "[6]", "value": 3.2}
    ]},
    {"smiles": "Cc1cc(C)cc(OP(=O)(Oc2cc(C)cc(C)c2)Oc2cc(C)cc(C)c2)c1", "values": [
      {"measurement": "logP", "setting": "[7]", "value": 5.26}
    ]},
    {"smiles": "CCCCc1ccc(NC(=O)CN(CC(=O)O)CC(=O)O)cc1Br", "values": [
      {"measurement": "logP", "setting": "[12]", "value": -0.1}
    ]},
    {"smiles": "COc1ccc(-c2cc(C#N)c(Cl)nc2C)cc1OC", "values": [
      {"measurement": "logP", "setting": "[14]", "value": 2.86}
    ]},
    {"smiles": "Cc1c2ccccc2c(C)c2ccccc12", "values": [
      {"measurement": "logP", "setting": "[16]", "value": 5.25}
    ]},
    {"smiles": "CCOP(=O)(CC(C)(C)[N+]([O-])=Cc1ccc(Cl)cc1)OCC", "values": [
      {"measurement": "logD", "setting": "[2]", "value": 2.29}
    ]},
    {"smiles": "Cc1ccc(Cl)c(Nc2ccccc2C(=O)O)c1Cl", "values": [
      {"measurement": "logP", "setting": "[13]", "value": 5.9}
    ]}
  ]
}
